Reference: US12310946B2, “Pharmaceutical composition for oral administration of edaravone and method of administering same” (MITSUBISHI TANABE PHARMA CORPORATION, priority 2020, dated 2025)
Read-outs that look alike come from different tables or passages of the source.

How the values were obtained:
P-gp and BCRP = test: Caco-2 transcellular transport study, efflux ratio with and without P-gp and BCRP inhibitors; type: in vitro ADME; conditions: human, Caco-2
Description: (§1) Cell membrane permeability is known to be constant regardless of the concentration of the substance when no transporter is involved. The control compounds, propranolol and mannitol, are not substrates for transporters P-gp and BCRP expressed in Caco-2 cells, and thus the values of the permeability coefficient are not considered to change depending on the concentrations used in the test. Thus, further, the following study was conducted to confirm that edaravone is not a substrate for transporters P-gp and BCRP as well.
(§2) That is, Caco-2 cells were seeded on a 96-well plate, cultured at 37° C. for 10 to 11 days in a CO2 incubator, and then a transcellular transport study was conducted. Then, a […] was calculated. The efflux ratio was calculated as the ratio of the mean values of Papp calculated from three measurements.

[1] = system: transporters P-gp and BCRP expressed in Caco-2 cells; test: as above; type: in vitro ADME; conditions: Caco-2 cells
Description: as §1, §2

[2] = Clinical study #11: PK of edaravone oral formulation (formula #3) via nasopharyngeal gastric tube vs oral in healthy adults; type: in vivo, human; conditions: for AUC(0-inf) / Cmax / AUC / half-life / Tmax: human, plasma; for AUC(0-inf) / Cmax: 105 mg; for Tmax: read-out: tmax (median)
Description: Pharmacokinetics of edaravone in administration of the edaravone oral formulation via a PEG tube was evaluated in 36 healthy adults. Specifically, performing gastrostomy in healthy adults is difficult, thus a nasopharyngeal gastric tube (NG tube), which allows the administration into the stomach via a tube in the same manner, was used as a model of administration via a percutaneous endoscopic gastrostomy tube (PEG tube), and a clinical study #11 described below was conducted.
The edaravone oral formulation (#3) was administered via a nasopharyngeal gastric tube (NG tube) to the subject group in fasted conditions after a lapse of 10 hours or longer from consumption of a meal. In the administration via an NG tube, first, 100 mL of lukewarm water was injected through an NG tube 1 hour before the administration of the edaravone oral formulation, and 10 mL of lukewarm water was injected through an NG tube immediately before the administration. Then, the edaravone oral formulation was administered to the NG tube, and further 30 mL of water was injected through the NG tube to wash in the edaravone oral formulation. Blood samples were each collected before the administration, and 5 minutes, 15 minutes, 30 minutes, 45 minutes, 1 hour, 1.5 hours, 2 hours, 4 hours, 6 hours, 8 hours, 10 hours, 12 hours, 24 hours, 36 hours, and 48 hours after the administration, and the concentrations of unchanged edaravone in plasma were measured. As a reference example, the same edaravone oral formulation was administered orally to the same subjects, blood samples were collected, and the concentrations of unchanged edaravone in plasma were measured in the same manner. For the oral administration, the edaravone oral formulation was administered orally after a lapse of 10 hours or longer from the previous meal consumption. None of the subjects consumed a next meal until the blood sample collection 4 hours after the administration was completed. In addition, results of an analysis of variance conducted on the AUC and Cmax in consideration of the meal condition are shown in Table 14 below.

[3] = Oxidation of edaravone depending on pH; type: physicochemical; conditions: dependence on pH
[4] = Nasopharyngeal gastric tube / Oral, least squares mean ratio
[5] = other: nasopharyngeal gastric tube (NG tube), formula #3 (105 mg), Nasopharyngeal gastric tube, fasted (N = 36), mean
[6] = formula #3 (105 mg), Oral, fasted (N = 36), mean

CC1=NN(c2ccccc2)C(=O)C1 [Edaravone, 3-methyl-1-phenyl-2-pyrazolin-5-one]
efflux ratio at 10 μmol/L (P-gp and BCRP; 10 μmol/L, no inhibitor): 0.9 | efflux ratio (P-gp and BCRP; in presence or absence of inhibitors): ≤ 2 | substrate for P-gp and BCRP [1]: not a substrate for P-gp and BCRP | AUC0-∞ Ratio [2, 4]: 0.981 | Cmax Ratio [2, 4]: 1.052 | AUC(0-inf) ([2]; other: nasopharyngeal gastric tube (NG tube), Nasopharyngeal gastric tube, analysis of variance, read-out: AUC0-∞ Least-square mean): 2500 ng·h/mL | Cmax ([2]; other: nasopharyngeal gastric tube (NG tube), Nasopharyngeal gastric tube, analysis of variance, read-out: Cmax Least-square mean): 2430 ng/mL | AUC(0-inf) ([2]; other: nasopharyngeal gastric tube (NG tube), formula #3 (105 mg), Nasopharyngeal gastric tube, fasted (N = 36), mean, read-out: AUC0-∞): 2620 ng·h/mL | Cmax ([2]; other: nasopharyngeal gastric tube (NG tube), formula #3 (105 mg), Nasopharyngeal gastric tube, fasted (N = 36), mean, read-out: Cmax): 2780 ng/mL | AUC [2, 5]: 2590 ng·h/mL | half-life [2, 5]: 13.5 h | Tmax ([2]; other: nasopharyngeal gastric tube (NG tube), formula #3 (105 mg), Nasopharyngeal gastric tube, fasted (N = 36)): 0.25 h | AUC(0-inf) ([2]; po, Oral, analysis of variance, read-out: AUC0-∞ Least-square mean): 2550 ng·h/mL | Cmax ([2]; po, Oral, analysis of variance, read-out: Cmax Least-square mean): 2310 ng/mL | AUC(0-inf) ([2]; po, formula #3 (105 mg), Oral, fasted (N = 36), mean, read-out: AUC0-∞): 2660 ng·h/mL | Cmax ([2]; po, formula #3 (105 mg), Oral, fasted (N = 36), mean, read-out: Cmax): 2470 ng/mL | AUC [2, 6]: 2610 ng·h/mL | half-life [2, 6]: 21.5 h | Tmax ([2]; formula #3 (105 mg), Oral, fasted (N = 36)): 0.5 h | oxidation of edaravone [3]: accelerated at a pH of 2.5 or lower and at a pH of 6.0 or higher
